# In patent publication US7144902B1, “Prodrugs of thrombin inhibitors” (Abbott GmbH & Co. KG, priority 1999, dated 2006):
# Test system: human colon adenocarcinoma cell lines HT-29, Caco-2 and T84; IEC-18 cell line
# Assay: Transport experiments through intestinal cell layers on Transwell polycarbonate membranes (apical to basolateral)
# Type: in vitro ADME
# Parameters: key: +++: very good transport; ++: good transport; +: moderate transport
# Details: transport rate from apical side through the cell layer to basolateral side, e.g. apical (pH 6.0) to basolateral (pH 8.0), e.g. 24 h; HPLC; divided into categories
# Text: Several in vitro models are available for studying intestinal absorption. Thus, the human colon adenocarcinoma cell lines HT-29, Caco-2 and T84 are routinely employed to investigate various intestinal transport processes (Madara et al., Am. J. Physiol. 1988, 254: G416–G423; K. L. Audus et al., Pharm. Res. 1990, 7, 435–451). The IEC-18 cell line has also shown itself to be a suitable model for investigating the permeability of hydrophilic substances through the intestinal membrane (Ma et al., J. Lab. Clin. Med. 1992 120, 329–41; Duizer et al., J. Contr. Rel. 1997 49, 39–49).
# For the transport experiments (for materials and methods, see R. T. Borchardt, P. L. Smith, G. Wilson, Models for Assessing Drug Absorption and Metabolism, 1st edition, Plenum Press New York and London, 1996, chapter 2), the cells are cultivated on Transwell polycarbonate membranes for 17–24 days. The test chamber is arranged so that the membrane divides the apical from the basolateral compartment. Transport of the test substances from the apical side through the cell layer onto the basolateral side can be measured as a function of the pH gradient, for example apical (pH 6.0)→basolateral (pH 8.0).
# After incubation of the cells with the test substance, samples are taken from the apical and basolateral sides after a defined time interval (e.g. 24 h). The content of test substance employed and any metabolites in each of the two compartments is determined by HPLC (comparison of retention times) and HPLC-MS (elucidation of metabolites) analyses. The transport rate is calculated.
# It is possible on the basis of the results of these tests to divide test substances into the following categories: […]
row,SMILES,Transport
1,"CC(C)CCOC(=O)CN[C@H](CC1CCCCC1)C(=O)N1CC=CC1C(=O)NCc1nc(C(N)=NO)cs1.Cl (some centres unmarked) [Example 33, N-(3,3-Dimethylpropyloxycarbonylmethyl)-(D)-cyclohexylalanyl-3,4-dehydroproline 4-hydroxyamidino-2-thiazolylmethylamide hydrochloride]",+++
2,"CCOC(=O)CN[C@@H](C(=O)N1CC=CC1C(=O)NCc1ccc(C(N)=NOCc2ccc(C)cc2)s1)C1CCCCC1.Cl (some centres unmarked) [Example 11, N-(Ethoxycarbonylmethyl)-(D)-cyclohexylglycyl-3.4-dehydroproline 2-(N-(p-methylbenzyloxy)amidino)-5-thienylmethylamide hydrochloride]",+++
3,"Cc1ccc(CON=C(N)c2ccc(CNC(=O)C3C=CCN3C(=O)[C@H](NCC(=O)O)C3CCCCC3)s2)cc1.Cl (some centres unmarked) [Example 10, N-(Hydroxycarbonylmethyl)-(D)-cyclohexylglycyl-3.4-dehydroproline 2-(N-(p-methylbenzyloxy)amidino)-5-thienylmethylamide hydrochloride]",+
4,"CC(C)COC(=O)NC(=N)c1ccc(CNC(=O)C2C=CCN2C(=O)[C@H](NCC(=O)O)C2CCCCC2)s1.Cl (some centres unmarked) [Example 2, N-(Hydroxycarbonylmethyl)-(D)-cyclohexylglycyl-3,4-dehydroproline 2-(N-isobutyloxycarbonyl)amidino-5-thienylmethylamide hydrochloride]",+

# Other lines, results leading:
row,Transport,SMILES
1,++,"CCCCCCCCCCCCCCCCOC(=O)CN[C@H](CC1CCCCC1)C(=O)N1CC=CC1C(=O)NCc1nc(C(N)=NO)cs1.Cl (some centres unmarked) [Example 25, N-(Hexadecyloxycarbonylmethyl)-(D)-cyclohexylalanyl-3,4-dehydroproline 4-hydroxyamidino-2-thiazolylmethylamide hydrochloride]"
2,++,"CCCCCCOC(=O)CN[C@H](CC1CCCCC1)C(=O)N1CC=CC1C(=O)NCc1nc(C(N)=NO)cs1.Cl (some centres unmarked) [Example 29, N-(Hexyloxycarbonylmethyl)-(D)-cyclohexylalanyl-3,4-dehydroproline 4-hydroxyamidino-2-thiazolylmethylamide hydrochloride]"
3,++,"CCCCCCCCCCCCCCCCOC(=O)CN[C@H](CC1CCCCC1)C(=O)N1CC=CC1C(=O)NCc1nc(C(=N)N)cs1.Cl.Cl (some centres unmarked) [Example 21, N-(Hexadecyloxycarbonylmethyl)-(D)-cyclohexylalanyl-3,4-dehydroproline 4-amidino-2-thiazolylmethylamide dihydrochloride]"

# Test system: not listed separately
# Assay: Stability of aqueous solutions of the product
# Type: physicochemical
# Details: neutral versus acidic aqueous solutions; acylated amidine function is hydrolyzed in acid
# Method: • The crude product obtained in g), t-BuO2C—CH2-(Boc)-(D)-Chg-Pyr-NH—CH -5-(2=NH(NH—COOCH3))-thioph (1.7 g, max. 2.3 mmol), was dissolved in a mixture of 45 ml of methylene chloride, 20 ml of dioxane and 45 ml of 4N hydrochloric acid in dioxane and stirred overnight with exclusion of moisture. The reaction solution was concentrated in vacuo, and the residue was codistilled with ether several times and subsequently extracted by stirring with ether. After drying in vacuo, 1.3 g of the title compound were obtained as a white solid product. […] FAB-MS (M+H^+): 506
row,SMILES,stability of aqueous solutions
1,"COC(=O)NC(=N)c1ccc(CNC(=O)C2C=CCN2C(=O)C(NCC(=O)O)C2CCCCC2)s1.Cl (centres unmarked) [Example 1, N-(Hydroxycarbonylmethyl)-(D)-cyclohexylglycyl-3,4-dehydroproline 2-(N-methoxycarbonyl)amidino-5-thienylmethylamide hydrochloride]",distinctly more stable than acidic solutions
